This is an account of results in US5446057A, “Substituted tetrahydropyridine and piperidine carboxylic acids as muscarinic antagonists” (priority 1993, dated 1995).

One data set deals with M3 receptors. The following applies: literature; cited from earlier work.
The next data set has as its target T1, m1 receptor (Homo sapiens, UniProt P11229).
T1 construct: expressed in transfected cells; host or cells: CHO cells (membranes)
T1 sequence (P11229 1-460): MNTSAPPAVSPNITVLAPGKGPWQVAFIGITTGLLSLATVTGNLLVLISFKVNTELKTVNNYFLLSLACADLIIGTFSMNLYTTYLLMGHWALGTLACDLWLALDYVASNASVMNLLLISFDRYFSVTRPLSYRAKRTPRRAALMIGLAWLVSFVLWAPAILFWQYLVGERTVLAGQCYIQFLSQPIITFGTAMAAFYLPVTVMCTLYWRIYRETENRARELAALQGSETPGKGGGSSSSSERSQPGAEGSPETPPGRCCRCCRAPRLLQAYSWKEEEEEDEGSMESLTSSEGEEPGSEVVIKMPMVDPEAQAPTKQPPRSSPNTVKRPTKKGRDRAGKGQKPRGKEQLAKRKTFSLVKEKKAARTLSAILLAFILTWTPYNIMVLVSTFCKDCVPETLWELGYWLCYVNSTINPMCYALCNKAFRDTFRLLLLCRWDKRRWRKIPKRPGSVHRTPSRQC
Nature of the data set: [3H]-NMS receptor binding using membranes from CHO cells expressing cloned human muscarinic receptor m1. To be noted: [3H]-NMS 100 pM, pH 7.4, 120 minutes at 25° C.

Another data set concerns the target T2, m2 receptor (Homo sapiens, UniProt P08172).
T2 construct: expressed in transfected cells; host or cells: CHO cells (membranes)
T2 sequence (P08172 1-466): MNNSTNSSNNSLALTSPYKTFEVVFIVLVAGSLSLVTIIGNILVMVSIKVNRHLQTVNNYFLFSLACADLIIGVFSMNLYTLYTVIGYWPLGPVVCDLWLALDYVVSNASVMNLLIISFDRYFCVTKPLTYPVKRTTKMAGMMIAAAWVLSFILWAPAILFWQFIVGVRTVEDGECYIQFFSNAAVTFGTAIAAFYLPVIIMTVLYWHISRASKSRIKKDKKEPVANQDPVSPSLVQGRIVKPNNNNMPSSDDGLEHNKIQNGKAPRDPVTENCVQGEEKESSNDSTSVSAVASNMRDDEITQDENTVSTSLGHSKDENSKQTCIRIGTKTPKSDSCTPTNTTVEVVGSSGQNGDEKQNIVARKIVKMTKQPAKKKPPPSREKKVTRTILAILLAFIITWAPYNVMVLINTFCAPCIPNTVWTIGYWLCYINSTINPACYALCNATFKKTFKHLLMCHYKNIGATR
The experiment in a line: [3H]-NMS receptor binding using membranes from CHO cells expressing cloned human muscarinic receptor m2. To be noted: [3H]-NMS 100 pM, pH 7.4, 120 minutes at 25° C.

Another data set deals with T3, Hm1 (Homo sapiens, UniProt P11229).
T3 construct: expressed in transfected cells; host or cells: CHO Hm1 cells
T3 sequence (P11229 1-460): T1 sequence (P11229 1-460)
The class given is cell-based.

Another data set deals with T4, m4 receptor (Homo sapiens, UniProt P08173).
T4 construct: expressed in transfected cells; host or cells: CHO cells (membranes)
T4 sequence (P08173 1-479): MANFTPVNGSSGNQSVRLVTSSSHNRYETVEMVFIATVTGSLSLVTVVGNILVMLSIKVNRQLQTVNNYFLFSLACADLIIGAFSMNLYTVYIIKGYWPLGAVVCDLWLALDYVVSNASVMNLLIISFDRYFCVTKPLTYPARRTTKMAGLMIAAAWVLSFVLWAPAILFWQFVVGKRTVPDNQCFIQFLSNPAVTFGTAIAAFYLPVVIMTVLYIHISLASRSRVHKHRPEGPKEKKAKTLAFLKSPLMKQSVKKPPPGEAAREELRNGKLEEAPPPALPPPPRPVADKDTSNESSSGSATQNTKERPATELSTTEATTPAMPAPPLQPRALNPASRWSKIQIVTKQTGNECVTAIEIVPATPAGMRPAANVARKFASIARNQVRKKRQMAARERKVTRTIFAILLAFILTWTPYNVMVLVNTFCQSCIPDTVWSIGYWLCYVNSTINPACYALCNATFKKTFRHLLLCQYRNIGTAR
Nature of the data set: [3H]-NMS receptor binding using membranes from CHO cells expressing cloned human muscarinic receptor m4. To be noted: [3H]-NMS 100 pM, pH 7.4, 120 minutes at 25° C.

For a further data set, the target named is T5, m5 receptor (Homo sapiens, UniProt P08912).
T5 construct: expressed in transfected cells; host or cells: CHO cells (membranes)
T5 sequence (P08912 1-532): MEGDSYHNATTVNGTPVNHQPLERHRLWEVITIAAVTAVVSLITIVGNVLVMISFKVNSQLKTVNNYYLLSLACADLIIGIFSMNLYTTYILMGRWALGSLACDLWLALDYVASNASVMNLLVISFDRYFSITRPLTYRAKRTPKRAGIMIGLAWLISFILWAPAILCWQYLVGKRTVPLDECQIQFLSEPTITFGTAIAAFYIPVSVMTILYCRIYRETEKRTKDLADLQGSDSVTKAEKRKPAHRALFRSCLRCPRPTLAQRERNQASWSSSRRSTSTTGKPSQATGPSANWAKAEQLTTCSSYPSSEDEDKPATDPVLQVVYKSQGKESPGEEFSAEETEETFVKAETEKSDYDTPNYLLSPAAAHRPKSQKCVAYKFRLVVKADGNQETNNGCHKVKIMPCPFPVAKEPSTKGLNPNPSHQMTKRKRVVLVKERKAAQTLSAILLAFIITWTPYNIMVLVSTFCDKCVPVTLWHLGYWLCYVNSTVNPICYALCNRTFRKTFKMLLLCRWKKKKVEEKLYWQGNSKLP
Nature of the data set: [3H]-NMS receptor binding using membranes from CHO cells expressing cloned human muscarinic receptor m5. To be noted: [3H]-NMS 100 pM, pH 7.4, 120 minutes at 25° C.

A further data set has as its target m3 receptor (Homo sapiens, UniProt P20309). The experiment in a line: [3H]-NMS receptor binding using membranes from CHO cells expressing cloned human muscarinic receptor m3. The following applies: [3H]-NMS 100 pM, pH 7.4, 120 minutes at 25° C.
A further data set has as its system M2 receptors. To be noted: literature; cited from earlier work.
For data set [1], the system named is patients with effort myocardial ischemia. The following applies: cited from earlier work.
The conditions of data set [2]: urinary incontinence; cited from earlier work.

m3 receptor, sequence (P20309 whole entry): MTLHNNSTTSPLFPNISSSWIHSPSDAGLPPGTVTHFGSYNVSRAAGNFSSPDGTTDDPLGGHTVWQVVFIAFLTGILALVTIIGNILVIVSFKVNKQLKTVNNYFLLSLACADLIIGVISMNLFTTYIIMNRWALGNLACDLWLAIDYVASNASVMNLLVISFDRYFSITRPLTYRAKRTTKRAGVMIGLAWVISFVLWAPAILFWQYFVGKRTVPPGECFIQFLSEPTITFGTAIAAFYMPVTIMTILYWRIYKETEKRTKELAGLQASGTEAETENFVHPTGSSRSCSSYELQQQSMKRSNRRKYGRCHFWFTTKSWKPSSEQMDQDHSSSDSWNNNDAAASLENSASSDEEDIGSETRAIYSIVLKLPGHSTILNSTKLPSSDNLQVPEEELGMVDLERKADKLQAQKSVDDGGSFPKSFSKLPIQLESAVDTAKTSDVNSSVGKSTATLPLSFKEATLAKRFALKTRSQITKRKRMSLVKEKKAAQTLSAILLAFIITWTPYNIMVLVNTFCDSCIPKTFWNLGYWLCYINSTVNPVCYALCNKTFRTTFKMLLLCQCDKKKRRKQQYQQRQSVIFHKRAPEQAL
Experimental for Hm1: CHO Hm1, Hm3, or Hm5 cells are grown at 37° C. with 5% CO2 in Dulbecco's modified Eagle's medium (DMEM) supplemented with 10% fetal bovine serum and 1% nonessential amino acids. […] After 48 hours, the medium is aspirated and the cells are washed 2 times with 1 mL MEM containing 10 mM LiCl. 0.5 mLMEM/LiCl then is added to each well and allowed to incubate at 37° C. for at least 15 minutes. […] For antagonist experiments, the appropriate antagonist is added simultaneously with carbachol (3 μM for m1, 5 μM for m3, and 3 μM for m5). After waiting at least 15 minutes, the TCA extract is applied to Dowex-formate columns (Biorad AG 1-X8 resin, formate form, 100-200 mesh). The wells are rinsed with 0.5 mL distilled H2 O and also applied to the columns. The columns are washed 4 times with 3 mL 5 mMmyo-inositol and then total [^3 H]-inositol phosphates are eluted into vials with two 2 mL washes of 1 mM ammonium formate containing 0.1M formic acid. Beckman Ready Gel scintillation cocktail (10 mL) is added and the samples counted in a Beckman 2800 scintillation counter. The efficacy of agonists is estimated from the maximal effect of the compounds on PI turnover (expressed as a percent of the stimulation produced by carbachol (1 mM)). EC50 and IC50 values are also calculated for both agonists and antagonists, respectively.
Experimental for m1 receptor: (§1) [^3 H]-N-methylscopolamine ([^3 H]-NMS) Receptor Binding Using Membranes From Chinese Hamster Ovary (CHO) Cells Selectively Expressing One of the Five Cloned Human Muscarinic Receptors
(§2) Following membrane harvest and storage at -80° C., aliquots of membranes (approximately 10-40 μg protein) are added to 2 mL of 10 mM sodium potassium phosphate buffer, pH 7.4, containing 100 pM [^3 H]-NMS; (78.9 Ci/mmol) and the appropriate test compound. Nonspecific binding is defined as that unaffected by the inclusion of 1 μM atropine. The reaction is initiated by the addition of the membranes and allowed to proceed for 120 minutes at 25° C. with shaking. Termination of the incubation is achieved by rapid vacuum filtration through GF/B Whatman filters using a Brandel Cell Harvester with the filters being washed three times with 5 mL ice-chilled buffer. 10 mL of Beckman Ready Gel scintillation cocktail are added to the filters in vials and the samples are allowed to set overnight before vortexing and counting in a Beckman 800 scintillation counter. IC50 values are calculated using a logit equation.
Experimental for m4 receptor: as §1, §2
Experimental for m5 receptor: as §1, §2

On to `C[N+]1(C)CCC(OC(=O)C(c2ccccc2)c2ccccc2)CC1` [Example 4-DAMP, 4-diphenylacetoxy-N-methylpiperidine methobromide], for which the “affinity for M3 receptors” value in the data set with M3 receptors is recorded as “high affinity”.
On to `O[Si](CCCN1CCCCC1)(c1ccccc1)C1CCCCC1` (stereo not shown) [hexahydrosiladifenidol], for which, in the data set on M3 receptors, the “affinity for M3 receptors” value is “high affinity”.
By IC50 is commonly meant the point on the concentration scale where inhibition reaches its midpoint. Low readings indicate inhibition by little substance, high ones a need for much substance. In the case of `CCN1CCC(c2ccccc2)=C(C(=O)N(C)C)C1` [C, 1-Ethyl-1,2,5,6-tetrahydro-4-phenyl-N,N-dimethyl-3-pyridinecarboxamide], the IC50 at m1 receptor was 5.01 µM; on m2 receptor it was 12.3 µM; on m4 receptor it was 13.5 µM; at m5 receptor it was 6.08 µM; at m3 receptor, 8.99 µM. Besides, at Hm1, the “muscarinic antagonism (in words)” value is given as “potent antagonists”.
Consider `COc1ccccc1CNCCCCCCNCCCCCCCCNCCCCCCNCc1ccccc1OC` [methoctramine], for which the “affinity for M2 receptors” value with M2 receptors is given as “high affinity”.
For `CN1CCN(CC(=O)N2c3ccccc3C(=O)Nc3cccnc32)CC1` [pirenzepine], the exercise tolerance entry in [1] is reported as “improve exercise tolerance”.
For `CCN1CCC(c2ccccc2)=C(C(=O)NC)C1` [D, 1-Ethyl-1,2,5,6-tetrahydro-4-phenyl-N-methyl-3-pyridinecarboxamide], the 50% inhibitory concentration (IC50) on m1 receptor was determined as 21.1 µM; at m2 receptor, 34.8 µM; at m4 receptor, 73.1 µM; at m5 receptor, 49.1 µM; at m3 receptor, 38.7 µM.
For `CCN1CCC(c2ccccc2)=C(C(=O)OC(C)C)C1` [Example 4, 1-Ethyl-1,2,5,6-tetrahydro-4-phenyl-3-pyridinecarboxylic acid, 1-methylethyl ester], the results for the IC50 on m2 receptor and at m4 receptor were 0.347 µM and 0.643 µM, respectively.
Turning to `CCCCC1=C(C(=O)OC)CN(CCC)CC1` [F, 1-Propyl-1,2,5,6-tetrahydro-4-butyl-3-pyridinecarboxylic acid, methyl ester], the concentration for half-maximal inhibition (IC50) amounted to 17.5 µM at m1 receptor; 5.34 µM on m2 receptor; 50.7 µM on m4 receptor; 41.2 µM at m5 receptor; 14.9 µM on m3 receptor.
In the case of `CCN(CC)CC#CCOC(=O)C(O)(c1ccccc1)C1CCCCC1` (stereo not shown) [oxybutynin], the “side effects limiting use” value in data set [2] is “mydriasis, dry mouth”.
As for `CCN1CC=C(c2ccccc2)C(C(=O)OCCc2ccc(Cl)cc2)C1` (stereo not shown) [Example 16, 1-Ethyl-1,2,3,6-tetrahydro-4-phenyl-3-pyridinecarboxylic acid, 2-(4-chlorophenyl)ethyl ester], the half-inhibitory concentration (IC50) was determined as 1.29 µM at m2 receptor and 1.85 µM at m4 receptor.
On to `COC(=O)C1=C(C)CCN(C)C1` [E, 1,4-Dimethyl-1,2,5,6-tetrahydro-3-pyridinecarboxylic acid, methyl ester], for which the IC50 at m1 receptor was 61 µM; at m2 receptor, 10.4 µM; on m4 receptor it was greater than 50 µM; on m5 receptor, 73.8 µM; at m3 receptor, 68 µM.
As to `CCN(CC)CC1CCCCN1CC(=O)N1c2ccccc2C(=O)Nc2cccnc21` (stereo not shown) [AF-DX 116], the “affinity for M2 receptors” value in the data set on M2 receptors is “high affinity”.
